Literature values, collected in patent publication US20110091549A1, “Modulating Drug Release Rate By Controlling The Kinetics Of The pH Transition In Hydrogels” (Confluent Surgical, Inc., priority 2009, published 2011).
Like-named read-outs stand apart in the source and are kept apart here.

Assays:
[1] = free base form compared with the salt form
[2] = drugs having a pKa of from about 7.4 to about 8.5

pKa [2] | SMILES | further results
7.85 | O=c1[nH]c(=O)n([C@H]2C[C@H](O)[C@@H](CO)O2)cc1Br [Broxuridine] | –
7.8 | CN1CCN(C(c2ccccc2)c2ccc(Cl)cc2)CC1 (stereo not drawn) [Chlorcyclizine] | –
7.7 | CCCN(CC)C(CC)C(=O)Nc1c(C)cccc1C (stereo not drawn) [Etidocaine] | –
– | COc1cccc2c1C(=O)c1c(O)c3c(c(O)c1C2=O)C[C@@](O)(C(=O)CO)C[C@@H]3O[C@H]1C[C@H](N)[C@H](O)[C@H](C)O1 [Doxorubicin] | pKa: 8.2
– | CCCCN1CCCCC1C(=O)Nc1c(C)cccc1C (stereo not drawn) [Bupivacaine, bupivacaine] | aqueous solubility [1]: lower aqueous solubility; pKa (transition of the salt form into free base form): about 8.1
